# Experimental data: US8247211B2, “Glycopeptide antibiotics” (American Cyanamid Company, priority 2001, dated 2012)
# How the values were obtained:
# Test in all cases: In vitro antibacterial evaluation: minimum inhibitory concentration (MIC), broth dilution method
# Assay type in all cases: cell-based
# Staphylococcus sp. = conditions: broth dilution, 18 hours at 35° C.
# In short: (§1)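 NCCLS M7-A2 broth dilution with Mueller-Hinton II, testing 64-0.06 μg/mL antibiotic against 5×10^5 CFU/mL inocula. Test strains include recent methicillin-, penicillin- or vancomycin-resistant clinical isolates. MIC is the lowest concentration preventing growth.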
# Escherichia coli = test system: Escherichia coli
# In short: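 Inoculum: 5×10^5 CFU/mL. Range: 64-0.06 μg/mL. Medium: Muller-Hinton II […]; NCCLS M7-A2 broth dilution. Endpoint: lowest concentration inhibiting growth. Strains include methicillin-, penicillin- and/or vancomycin-resistant clinical isolates.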
# Streptococcus sp. = test system: Streptococcus sp.
# In short: as §1
# Enterococcus sp. = test system: Enterococcus sp.
# In short: as §1
# [1] = broth dilution, inoculum 5×10^5 CFU/mL, 18 hours at 35° C.
smiles,measurement,setting,value
"COc1cc(C2OCC3OC(OC4C(CO)OC(Oc5ccc(CC6NC(=O)C(C(C)c7ccccc7)NC(=O)CNC(=O)C(CO)NC(=O)C(C(O)C7CNC(=N)N7C7OC(CO)C(O)C(O)C7O)NC(=O)C(C(O)C7CNC(=N)N7)NC6=O)cc5)C(O)C4O)C(O)C(O)C3O2)cc([N+](=O)[O-])c1O (stereo not drawn) [Example 169, Cyclo[glycyl-β-methylphenylalanyl-O-[4-O-[4,6-O-(4-hydroxy-3-methoxy-4-nitro-benzylidene)hexopyranosyl]hexopyranosyl]tyrosyl-3-(2-iminoimidazolidin-4-yl)seryl-3-(3-hexopyranosyl-2-iminoimidazolidin-4-yl)serylseryl]]",MIC Coagulase Negative Staphylococcus (GC 4547),Staphylococcus sp.; 5×10^5 CFU/mL,32 µg/mL
same,MIC Coagulase Negative Staphylococcus (GC 4548),Staphylococcus sp.; 5×10^5 CFU/mL,32 µg/mL
same,MIC Coagulase Negative Staphylococcus (GC 4549),Staphylococcus sp.; 5×10^5 CFU/mL,16 µg/mL
same,MIC Coagulase Negative Staphylococcus (GC 4551),Staphylococcus sp.; 5×10^5 CFU/mL,>64 µg/mL
same,MIC Coagulase Negative Staphylococcus (GC 6257),Staphylococcus sp.; 5×10^5 CFU/mL,8 µg/mL
same,MIC Staphylococcus aureus (ATCC 29213),Staphylococcus sp.; 5×10^5 CFU/mL,32 µg/mL
same,MIC Staphylococcus aureus (GC 1131),Staphylococcus sp.; 5×10^5 CFU/mL,32 µg/mL
same,MIC Staphylococcus aureus (GC 3051),Staphylococcus sp.; 5×10^5 CFU/mL,32 µg/mL
same,MIC Staphylococcus aureus (GC 3053),Staphylococcus sp.; 5×10^5 CFU/mL,>64 µg/mL
same,MIC Staphylococcus aureus (GC 4541),Staphylococcus sp.; 5×10^5 CFU/mL,32 µg/mL
same,MIC Staphylococcus aureus (GC 4542),Staphylococcus sp.; 5×10^5 CFU/mL,32 µg/mL
same,MIC Staphylococcus aureus (GC 4544),Staphylococcus sp.; 5×10^5 CFU/mL,32 µg/mL
same,MIC Staphylococcus aureus (GC 4545),Staphylococcus sp.; 5×10^5 CFU/mL,32 µg/mL
same,MIC Staphylococcus aureus-SMITH (GC 4543),Staphylococcus sp.; 5×10^5 CFU/mL,32 µg/mL
same,MIC Staphylococcus haemolyticus (GC 4546),Staphylococcus sp.; 5×10^5 CFU/mL,32 µg/mL
same,MIC Staphylococcus aureus (ATCC 29213),Staphylococcus sp.; strain ATCC 29213,32 µg/mL
same,MIC Staphylococcus aureus (GC 1131),Staphylococcus sp.; strain GC 1131,32 µg/mL
same,MIC Staphylococcus aureus (GC 3051),Staphylococcus sp.; strain GC 3051,32 µg/mL
same,MIC Staphylococcus aureus (GC 3053),Staphylococcus sp.; strain GC 3053,>64 µg/mL
same,MIC Staphylococcus aureus (GC 4541),Staphylococcus sp.; strain GC 4541,32 µg/mL
same,MIC Staphylococcus aureus (GC 4542),Staphylococcus sp.; strain GC 4542,32 µg/mL
same,MIC Staphylococcus aureus (GC 4544),Staphylococcus sp.; strain GC 4544,32 µg/mL
same,MIC Staphylococcus aureus (GC 4545),Staphylococcus sp.; strain GC 4545,32 µg/mL
same,MIC Escherichia coli (ATCC 25922),Escherichia coli; strain ATCC 25922,>64 µg/mL
same,MIC Escherichia coli (GC 4559),Escherichia coli; strain GC 4559,>64 µg/mL
same,MIC Escherichi coli (GC 4560),Escherichia coli; strain GC 4560,8 µg/mL
same,MIC Streptococcus agalactiae (GC 4564),Streptococcus sp.; [1],32 µg/mL
same,MIC Streptococcus pneumoniae (ATCC 6301),Streptococcus sp.; [1],8 µg/mL
same,MIC Streptococcus pneumoniae (GC 1894),Streptococcus sp.; [1],8 µg/mL
same,MIC Streptococcus pneumoniae (GC 4565),Streptococcus sp.; [1],8 µg/mL
same,MIC Streptococcus pyogenes (GC 4563),Streptococcus sp.; [1],16 µg/mL
same,MIC Streptococcus pneumoniae (ATCC 6301),Streptococcus sp.; strain ATCC 6301,8 µg/mL
same,MIC Streptococcus pneumoniae (GC 1894),Streptococcus sp.; strain GC 1894,8 µg/mL
same,MIC Streptococcus pyogenes (GC 4563),Streptococcus sp.; strain GC 4563,16 µg/mL
same,MIC Streptococcus agalactiae (GC 4564),Streptococcus sp.; strain GC 4564,32 µg/mL
same,MIC Streptococcus pneumoniae (GC 4565),Streptococcus sp.; strain GC 4565,8 µg/mL
same,MIC Enterococcus avium (GC 4558),Enterococcus sp.; [1],>64 µg/mL
same,MIC Enterococcus faecalis (ATCC 29212),Enterococcus sp.; [1],>64 µg/mL
same,MIC Enterococcus faecalis (GC 2242),Enterococcus sp.; [1],>64 µg/mL
same,MIC Enterococcus faecalis (GC 2691),Enterococcus sp.; [1],>64 µg/mL
same,MIC Enterococcus faecalis (GC 3059),Enterococcus sp.; [1],>64 µg/mL
same,MIC Enterococcus faecalis (GC 4552),Enterococcus sp.; [1],>64 µg/mL
same,MIC Enterococcus faecalis (GC 4553),Enterococcus sp.; [1],>64 µg/mL
same,MIC Enterococcus faecalis (GC 4554),Enterococcus sp.; [1],>64 µg/mL
same,MIC Enterococcus faecalis (GC 6189),Enterococcus sp.; [1],>64 µg/mL
same,MIC Enterococcus faecium (GC 2243),Enterococcus sp.; [1],>64 µg/mL
same,MIC Enterococcus faecium (GC 4556),Enterococcus sp.; [1],>64 µg/mL
same,MIC Enterococcus faecium (GC 4557),Enterococcus sp.; [1],32 µg/mL
same,MIC Enterococcus faecalis (ATCC 29212),Enterococcus sp.; strain ATCC 29212,>64 µg/mL
same,MIC Enterococcus faecalis (GC 2242),Enterococcus sp.; strain GC 2242,>64 µg/mL
same,MIC Enterococcus faecium (GC 2243),Enterococcus sp.; strain GC 2243,>64 µg/mL
same,MIC Enterococcus faecalis (GC 2691),Enterococcus sp.; strain GC 2691,>64 µg/mL
same,MIC Enterococcus faecalis (GC 3059),Enterococcus sp.; strain GC 3059,>64 µg/mL
same,MIC Enterococcus faecalis (GC 4552),Enterococcus sp.; strain GC 4552,>64 µg/mL
same,MIC Enterococcus faecalis (GC 4553),Enterococcus sp.; strain GC 4553,>64 µg/mL
same,MIC Enterococcus faecalis (GC 4554),Enterococcus sp.; strain GC 4554,>64 µg/mL
same,MIC Enterococcus faecium (GC 4556),Enterococcus sp.; strain GC 4556,>64 µg/mL
same,MIC Enterococcus faecium (GC 4557),Enterococcus sp.; strain GC 4557,32 µg/mL
same,MIC Enterococcus avium (GC 4558),Enterococcus sp.; strain GC 4558,>64 µg/mL
same,MIC Enterococcus faecalis (GC 6189),Enterococcus sp.; strain GC 6189,>64 µg/mL
